Data as given in article PMC7997640, “Potential anti-COVID-19 agents, cepharanthine and nelfinavir, and their usage for combination treatment” (iScience, 2021).
Where two headings read alike, the source gives them in different places.

Columns and labels:
SARS-CoV-2 [1] = assay type: cell-based
SARS-CoV-2 [2] = system: SARS-CoV-2
SARS-CoV-2 [3] = assay type: cell-based; remark: listed apart in the source
in vitro = conditions: African green monkey
SARS-CoV-2 [4] = assay: Virus-cell binding assay at 4°C; assay type: cell-based
SARS-CoV-2 [5] = assay: microbe, parasite or virus in culture; conditions: for IC90: read-out: SARS-CoV-2 RNA IC90
SARS-CoV-2 [6] = assay type: cell-based; conditions: VeroE6/TMPRSS2, 48 hr
SARS-CoV-2 [7] = assay: Chemical screening of 306 approved drugs by cytopathic effect assay; assay type: cell-based
SARS-CoV-2 [8] = assay: Viral N protein immunofluorescence in Calu-3 cells; assay type: cell-based
SARS-CoV-2 [9] = assay: microbe, parasite or virus in culture; assay type: cell-based
[10] = expected in human lung
SARS-CoV = conditions: ref Liu et al., 2005, Wu et al., 2004, Yamamoto et al.; cited from earlier work
clinical = conditions: human, po, 500 mg
[11] = patients, 500 mg NFV orally; ref Markowitz et al., 1998; read-out: serum Cmax; cited from earlier work
SARS-CoV-2 main protease = SARS-CoV-2 main protease (Severe acute respiratory syndrome coronavirus 2, UniProt P0DTD1); assay: biochemical
[12] = secreted viral RNA 24 hr, RDV 15 μM, CLQ 15 μM, CEP 8.2 μM, NFV 4 μM
[13] = Table S1, Single-drug treatment
[14] = VeroE6/TMPRSS2, 24 hr, LPV 16 μM, CLQ 16 μM, RDV 20 μM, CEP 8 μM, NFV 4 μM
[15] = Severe acute respiratory syndrome coronavirus 2, VeroE6/TMPRSS2, 24 h, read-out: SARS-CoV-2 RNA IC50
[16] = Severe acute respiratory syndrome coronavirus 2, VeroE6/TMPRSS2, 24 h
[17] = Severe acute respiratory syndrome coronavirus 2, read-out: IC50 (Hill function fit)

Q: Which “step of life cycle inhibited (time-of-addition)” value (SARS-CoV-2 [1]; [12]) does the source give for `CCN(CC)CCCC(C)Nc1ccnc2cc(Cl)ccc12` (stereo not drawn) [CLQ, chloroquine] here?
A: Its value is “activity in the early stages of infection”.

Q: What about the “antiviral activity on viral RNA” value (SARS-CoV-2 [2]) of the same compound?
A: The value was “inhibited viral RNA”.

Q: And the “m, slope of the dose-response curve (Hill coefficient)” value (from here on “m, slope of the dose-response curve”) (SARS-CoV-2 [2]; [13])?
A: The value was 1.984.

Q: What about the N protein expression (SARS-CoV-2 [3]; [14]) of the same compound?
A: Its N protein expression is “significantly reduced N protein expression”.

Q: And the CC50 (in vitro)?
A: Its CC50 is over 64 µM.

Q: What about the “SARS-CoV-2 binding to cells (cell-bound viral RNA)” value (SARS-CoV-2 [4]) of the same compound?
A: The value was “negligible effect”.

Q: And the IC50 (SARS-CoV-2 [5]; [15])?
A: The IC50 was 1.31 µM.

Q: What about the IC90 (SARS-CoV-2 [5]; [16]) of the same compound?
A: Its IC90 is 3.97 µM.

Q: What about the IC50 (SARS-CoV-2 [5]; [17]) of the same compound?
A: Its IC50 is 1.31 µM.

Q: What about the virus-induced cytopathicity (SARS-CoV-2 [6]) of the same compound?
A: The virus-induced cytopathicity was “reduced virus-induced cytopathicity”.

Q: Which results are given for `NC(=O)c1nc(F)c[nH]c1=O` [FPV, favipiravir]?
A: antiviral activity on viral RNA (SARS-CoV-2 [2]): negligible antiviral activity; CC50 (in vitro): > 64 µM; IC50 (SARS-CoV-2 [5]; [15]): > 64 µM; IC90 (SARS-CoV-2 [5]; [16]): > 64 µM

Q: Which “antiviral activity on viral RNA” value (SARS-CoV-2 [2]) does the source give for `Cc1cccc(C)c1OCC(=O)N[C@@H](Cc1ccccc1)[C@@H](O)C[C@H](Cc1ccccc1)NC(=O)[C@H](C(C)C)N1CCCNC1=O` [LPV, lopinavir] here?
A: The value was “inhibited viral RNA”.

Q: And the “m, slope of the dose-response curve” value (SARS-CoV-2 [2]; [13])?
A: Its value is 3.852.

Q: What about the “screening outcome (hit = cell survival more than 20-fold of the control)” value (SARS-CoV-2 [7]) of the same compound?
A: Its value is “identified as hits”.

Q: What about the N protein expression (SARS-CoV-2 [3]; [14]) of the same compound?
A: The N protein expression was “significantly reduced N protein expression”.

Q: What about the CC50 (in vitro) of the same compound?
A: Its CC50 is 54.9 µM.

Q: And the IC50 (SARS-CoV-2 [5]; [15])?
A: Its IC50 is 3.07 µM.

Q: What about the IC90 (SARS-CoV-2 [5]; [16]) of the same compound?
A: The IC90 was 5.43 µM.

Q: What about the IC50 (SARS-CoV-2 [5]; [17]) of the same compound?
A: The IC50 was 3.61 µM.

Q: What about the virus-induced cytopathicity (SARS-CoV-2 [6]) of the same compound?
A: The virus-induced cytopathicity was “reduced virus-induced cytopathicity”.

Q: With `CCOC(=O)O[C@]1(C(=O)OCCl)CC[C@H]2[C@@H]3CCC4=CC(=O)C=C[C@]4(C)[C@H]3[C@@H](O)C[C@@]21C` [Loteprednol] as the compound, how does the “screening outcome (hit = cell survival more than 20-fold of the control)” value (SARS-CoV-2 [7]) read?
A: The value was “identified as hits”.

Q: With `Cc1c(O)cccc1C(=O)N[C@@H](CSc1ccccc1)[C@H](O)CN1C[C@H]2CCCC[C@H]2C[C@H]1C(=O)NC(C)(C)C` [NFV, nelfinavir] as the compound, how does the “SARS-CoV-2 proliferation in Calu-3 cells (N protein)” value (SARS-CoV-2 [8]) read?
A: The value was “inhibit SARS-CoV-2 proliferation”.

Q: What about the IC50 (SARS-CoV-2 [9]; [17]) of the same compound?
A: The IC50 was 1.32 µM.

Q: And the “m, slope of the dose-response curve” value (SARS-CoV-2 [9]; Table S1, Combination treatment experiment)?
A: The value was 4.043.

Q: And the “viral RNA, % of untreated control” value (SARS-CoV-2 [9]; […], CEP 3.20 μM, NFV 2.24 μM, alone or combined)?
A: Its value is 5.8%.

Q: What about the “step of life cycle inhibited (time-of-addition)” value (SARS-CoV-2 [1]; [12]) of the same compound?
A: The value was “clearly inhibited the post-entry process”.

Q: What about the Degradation rate k [10] of the same compound?
A: Its Degradation rate k is 4.89 day⁻¹.

Q: And the “viral RNA levels, % of the untreated control infections” value (SARS-CoV-2 [2])?
A: The value was 0.001–0.01%.

Q: And the “window (CC50/IC50)” value (SARS-CoV-2 [2])?
A: Its value is over 70 fold.

Q: And the “m, slope of the dose-response curve” value (SARS-CoV-2 [2]; [13])?
A: The value was 5.079.

Q: And the “replication of SARS-CoV” value (SARS-CoV)?
A: The value was “inhibit the replication”.

Q: What about the Cmax (clinical) of the same compound?
A: The Cmax was 9.32 µM.

Q: What about the “screening outcome (hit = cell survival more than 20-fold of the control)” value (SARS-CoV-2 [7]) of the same compound?
A: Its value is “identified as hits”.

Q: What about the N protein expression (SARS-CoV-2 [3]; [14]) of the same compound?
A: Its N protein expression is “significantly reduced N protein expression”.

Q: And the CC50 (in vitro)?
A: The CC50 was over 64 µM.

Q: What about the Cmax [11] of the same compound?
A: The Cmax was 6.9 µM.

Q: What about the IC50 (SARS-CoV-2 [5]; [15]) of the same compound?
A: The IC50 was 0.77 µM.

Q: What about the IC90 (SARS-CoV-2 [5]; [16]) of the same compound?
A: The IC90 was 1.18 µM.

Q: And the IC50 (SARS-CoV-2 [5]; [17])?
A: Its IC50 is 0.765 µM.

Q: What about the virus-induced cytopathicity (SARS-CoV-2 [6]) of the same compound?
A: Its virus-induced cytopathicity is “greatest anti-cytopathic activity”.

Q: What about the IC50 (SARS-CoV-2 main protease) of the same compound?
A: Its IC50 is 37 µM.

Q: Which results are given for `CCC(CC)COC(=O)[C@H](C)N[P@](=O)(OC[C@H]1O[C@@](C#N)(c2ccc3c(N)ncnn23)[C@H](O)[C@@H]1O)Oc1ccccc1` [RDV, Remdesivir]?
A: step of life cycle inhibited (time-of-addition) (SARS-CoV-2 [1]): negligible effect on virus entry; antiviral activity on viral RNA (SARS-CoV-2 [2]): inhibited viral RNA; m, slope of the dose-response curve (Hill coefficient) (SARS-CoV-2 [2]): 3.048; N protein expression (SARS-CoV-2 [3]): significantly reduced N protein expression; CC50 (in vitro): > 64 µM; IC50 (SARS-CoV-2 [5]; [15]): 1.58 µM; IC90 (SARS-CoV-2 [5]; [16]): 3.24 µM; IC50 (SARS-CoV-2 [5]; [17]): 1.58 µM

Q: With `CO[C@H]1C[C@@H]2CC[C@@H](C)[C@@](O)(O2)C(=O)C(=O)N2CCCC[C@H]2C(=O)O[C@H]([C@H](C)C[C@@H]2CC[C@@H](O)[C@H](OC)C2)CC(=O)[C@H](C)/C=C(\C)[C@@H](O)[C@@H](OC)C(=O)[C@H](C)C[C@H](C)/C=C/C=C/C=C/1C` [Rapamycin] as the compound, how does the “screening outcome (hit = cell survival more than 20-fold of the control)” value (SARS-CoV-2 [7]) read?
A: Its value is “identified as hits”.

Q: Which “SARS-CoV-2 binding to cells (cell-bound viral RNA)” value (SARS-CoV-2 [4]) does the source give for heparin here?
A: Its value is “significantly blocked SARS-CoV-2 particle attachment”.
